Experiment [1] addresses T1, purified recombinant human Aggrecanase-1 (rAgg1) (Homo sapiens, UniProt O75173).
T1 sequence (O75173 213-837): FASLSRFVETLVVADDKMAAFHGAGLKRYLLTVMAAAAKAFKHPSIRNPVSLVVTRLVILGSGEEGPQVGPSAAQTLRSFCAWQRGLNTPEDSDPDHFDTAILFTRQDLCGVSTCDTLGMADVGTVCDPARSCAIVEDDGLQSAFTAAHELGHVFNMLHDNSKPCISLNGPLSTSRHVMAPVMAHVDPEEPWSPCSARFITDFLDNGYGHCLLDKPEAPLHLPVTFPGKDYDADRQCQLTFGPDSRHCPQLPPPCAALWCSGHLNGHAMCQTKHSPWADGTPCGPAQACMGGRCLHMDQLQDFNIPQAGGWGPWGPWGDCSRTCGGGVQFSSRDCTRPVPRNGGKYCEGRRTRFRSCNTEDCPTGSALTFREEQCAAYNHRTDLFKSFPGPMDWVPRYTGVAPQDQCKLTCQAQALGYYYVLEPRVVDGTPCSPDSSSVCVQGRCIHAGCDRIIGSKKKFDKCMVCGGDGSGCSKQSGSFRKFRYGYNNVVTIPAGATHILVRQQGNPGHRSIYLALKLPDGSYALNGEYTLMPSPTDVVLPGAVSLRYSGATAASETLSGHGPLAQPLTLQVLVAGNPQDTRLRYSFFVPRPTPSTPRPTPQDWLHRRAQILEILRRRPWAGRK
The experiment is described as follows: In vitro fluorescence screen for Aggrecanase-1 inhibitors. Format: biochemical. As to conditions: Table 2; read-out: Agg1 IC50.

For experiment [2], the target named is T2, purified recombinant human Aggrecanase-2 (Ag2t-Phe628-Strep) (Homo sapiens, UniProt Q9UNA0).
T2 construct: the form used is denoted as Ag2t-Phe628-Strep (MW=41,737)
T2 sequence (Q9UNA0 262-628): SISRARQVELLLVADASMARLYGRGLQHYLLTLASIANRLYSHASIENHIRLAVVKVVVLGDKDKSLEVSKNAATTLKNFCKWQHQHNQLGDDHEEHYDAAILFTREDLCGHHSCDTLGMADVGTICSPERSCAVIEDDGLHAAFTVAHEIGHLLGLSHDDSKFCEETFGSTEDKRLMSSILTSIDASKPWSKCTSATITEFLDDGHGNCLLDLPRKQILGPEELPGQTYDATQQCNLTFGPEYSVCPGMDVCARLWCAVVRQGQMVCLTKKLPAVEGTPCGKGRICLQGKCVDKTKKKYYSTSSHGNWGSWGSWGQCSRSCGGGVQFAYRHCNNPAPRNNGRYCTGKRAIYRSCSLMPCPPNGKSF
Kind of experiment: In vitro fluorescence screen for Aggrecanase-2 inhibitors. Format: biochemical. As to conditions: Table 2; read-out: Agg 2 IC50.

The structures appear in SMILES notation.

Take `CC(C)(Cc1ccccc1)NC(=O)[C@H](CCC(=O)O)NC(=O)c1ccc(-c2ccc(COc3cc(C(C)(C)C)cc(C(C)(C)C)c3)cc2)cc1` [Example 15Z, N^2-({4′-[(3,5-di-tert-butylphenoxy)methyl]biphenyl-4-yl}carbonyl)-N-(1,1-dimethyl-2-phenylethyl)-L-α-glutamine]: the figures for the IC50 in experiment [1] and in experiment [2] were 1400 nM and 6040 nM, respectively.
For `CCOc1cccc(-c2ccc(C(=O)N[C@@H](CCC(=O)O)C(=O)NCc3cc(OC)c(OC)c(OC)c3)cc2)c1` [Example 16, N^2-[(3′-ethoxybiphenyl-4-yl)carbonyl]-N-(3,4,5-trimethoxybenzyl)-L-α-glutamine], in that order: under 30 nM and 467 nM.
With `CCOc1ccccc1-c1ccc(C(=O)N[C@@H](CCC(=O)O)C(=O)NCc2cc(OC)c(OC)c(OC)c2)cc1` [Example 17A, N^2-[(2′-ethoxybiphenyl-4-yl)carbonyl]-N-(3,4,5-trimethoxybenzyl)-L-α-glutamine], the half-inhibitory concentration (IC50) – broadly, the concentration that gives 50% inhibition – turned out to be 116 nM in experiment [1] and 1120 nM in experiment [2].
Turning to `COc1cc(CNC(=O)[C@H](CCC(=O)O)NC(=O)c2ccc(-c3ccc(C(C)C)cc3)cc2)cc(OC)c1OC` [Example 17AA, N^2-[(4′-isopropylbiphenyl-4-yl)carbonyl]-N-(3,4,5-trimethoxybenzyl)-L-α-glutamine], the results for the IC50 in experiment [1] and in experiment [2] were 3500 nM and 5700 nM, respectively.
On to `COc1ccc(-c2ccc(C(=O)N[C@@H](CCC(=O)O)C(=O)NCc3cc(OC)c(OC)c(OC)c3)cc2)cc1` [Example 17B, N^2-[(4′-methoxybiphenyl-4-yl)carbonyl]-N-(3,4,5-trimethoxybenzyl)-L-α-glutamine], for which the concentration for half-maximal inhibition (IC50) in experiment [1] worked out at 204 nM; in experiment [2] it was 1020 nM.
For `O=C(O)CC[C@H](NC(=O)c1ccc(-c2ccc3occc3c2)cc1)C(=O)NCC12CC3CC(CC(C3)C1)C2` [Example 17BB, N-(1-adamantylmethyl)-N^2-[4-(1-benzofuran-5-yl)benzoyl]-L-α-glutamine], in that order: 3600 nM and 2900 nM.
The corresponding values for `COc1cccc(-c2ccc(C(=O)N[C@@H](CCC(=O)O)C(=O)NCc3cc(OC)c(OC)c(OC)c3)cc2)c1` [Example 17C, N^2-[(3′-methoxybiphenyl-4-yl)carbonyl]-N-(3,4,5-trimethoxybenzyl)-L-α-glutamine] are under 30 nM and 80 nM.
Take `O=C(O)CC[C@H](NC(=O)c1ccc(-c2ccc3[nH]ccc3c2)cc1)C(=O)NCC12CC3CC(CC(C3)C1)C2` [Example 17CC, N-(1-adamantylmethyl)-N^2-[4-(1H-indol-5-yl)benzoyl]-L-α-glutamine]: the IC50 in experiment [1] is 2900 nM; in experiment [2] it was 2970 nM.
As for `COc1cc(CNC(=O)[C@H](CCC(=O)O)NC(=O)c2ccc(-c3cccc(C(=O)O)c3)cc2)cc(OC)c1OC` [Example 17D, 4′-{[((1S)-3-carboxy-1-{[(3,4,5-trimethoxybenzyl)amino]carbonyl}propyl)amino]carbonyl}biphenyl-3-carboxylic acid], the IC50 in experiment [1] is over 17000 nM; in experiment [2], over 200000 nM.
As to `CCOc1cccc(-c2ccc(C(=O)N[C@@H](CCC(=O)O)C(=O)NC(C)(C)Cc3ccc(F)cc3)cc2)c1` [Example 17DD, N^2-[(3′-ethoxybiphenyl-4-yl)carbonyl]-N-[2-(4-fluorophenyl)-1,1-dimethylethyl]-L-α-glutamine], the half-maximal inhibitory concentration (IC50) in experiment [1] was under 30 nM; in experiment [2] it was 1190 nM.
For `CCc1ccc(-c2ccc(C(=O)N[C@@H](CCC(=O)O)C(=O)NCc3cc(OC)c(OC)c(OC)c3)cc2)cc1` [Example 17E, N^2-[(4′-ethylbiphenyl-4-yl)carbonyl]-N-(3,4,5-trimethoxybenzyl)-L-α-glutamine], in that order: 251 nM and 1040 nM.
`COc1cccc(-c2ccc(C(=O)N[C@@H](CCC(=O)O)C(=O)NC(C)(C)Cc3ccc(F)cc3)cc2)c1` [Example 17EE, N-[2-(4-fluorophenyl)-1,1-dimethylethyl]-N^2-[(3′-methoxybiphenyl-4-yl)carbonyl]-L-α-glutamine]: the IC50 was under 30 nM in experiment [1] and 194 nM in experiment [2].
For `COc1ccc(-c2ccc(C(=O)N[C@@H](CCC(=O)O)C(=O)NCc3cc(OC)c(OC)c(OC)c3)cc2)cc1OC` [Example 17F, N^2-[(3′,4′-dimethoxybiphenyl-4-yl)carbonyl]-N-(3,4,5-trimethoxybenzyl)-L-α-glutamine], in that order: 1700 nM and about 8300 nM.
For the molecule `CC(C)c1cccc(-c2ccc(C(=O)N[C@@H](CCC(=O)O)C(=O)NC(C)(C)Cc3ccc(F)cc3)cc2)c1` [Example 17FF, N-[2-(4-fluorophenyl)-1,1-dimethylethyl]-N^2-[(3′-isopropylbiphenyl-4-yl)carbonyl]-L-α-glutamine], the IC50 in experiment [1] is 690 nM; in experiment [2] it was 13900 nM.
`COc1ccc(-c2ccc(C(=O)N[C@@H](CCC(=O)O)C(=O)NCc3cc(OC)c(OC)c(OC)c3)cc2)c(OC)c1` [Example 17G, N^2-[(2′,4′-dimethoxybiphenyl-4-yl)carbonyl]-N-(3,4,5-trimethoxybenzyl)-L-α-glutamine]: the IC50 in experiment [1] is 1600 nM; in experiment [2], 3000 to 8000 nM.
The corresponding values for `Cc1ccc(-c2ccc(C(=O)N[C@@H](CCC(=O)O)C(=O)NC(C)(C)Cc3ccc(F)cc3)cc2)cc1F` [Example 17GG, N^2-[(3′-fluoro-4′-methylbiphenyl-4-yl)carbonyl]-N-[2-(4-fluorophenyl)-1,1-dimethylethyl]-L-α-glutamine] are 34 nM and 113 nM.
For `COc1cc(CNC(=O)[C@H](CCC(=O)O)NC(=O)c2ccc(-c3cc(OC)c(OC)c(OC)c3)cc2)cc(OC)c1OC` [Example 17H, N-(3,4,5-trimethoxybenzyl)-N^2-[(3′,4′,5′-trimethoxybiphenyl-4-yl)carbonyl]-L-α-glutamine], in that order: 1000 nM and about 22000 nM.
Take `CC(C)Cc1ccc(-c2ccc(C(=O)N[C@@H](CCC(=O)O)C(=O)NC(C)(C)Cc3ccc(F)cc3)cc2)cc1` [Example 17HH, N-[2-(4-fluorophenyl)-1,1-dimethylethyl]-N^2-[(4′-isobutylbiphenyl-4-yl)carbonyl]-L-α-glutamine]: the concentration for half-maximal inhibition (IC50) in experiment [1] came out at 2200 nM; in experiment [2], 6320 nM.
The corresponding values for `COc1cc(CNC(=O)[C@H](CCC(=O)O)NC(=O)c2ccc(-c3ccc(-c4ccccc4)cc3)cc2)cc(OC)c1OC` [Example 17II, N^2-(1,1′:4′,1″-terphenyl-4-ylcarbonyl)-N-(3,4,5-trimethoxybenzyl)-L-α-glutamine] are 1000 to 3000 nM and about 10000 nM.
The corresponding values for `COc1ccc(-c2ccc(C(=O)N[C@@H](CCC(=O)O)C(=O)NC(C)(C)Cc3ccccc3)cc2)cc1OC` [Example 17J, N^2-[(3′,4′-dimethoxybiphenyl-4-yl)carbonyl]-N-(1,1-dimethyl-2-phenylethyl)-L-α-glutamine] are about 5600 nM and about 30000 nM.
Take `O=C(O)CC[C@H](NC(=O)c1ccc(-c2cccc(CO)c2)cc1)C(=O)NCc1ccccc1` [Example 17JJ, N-benzyl-N^2-{[3′-(hydroxymethyl)biphenyl-4-yl]carbonyl}-L-α-glutamine]: the half-inhibitory concentration (IC50) in experiment [1] worked out at 2400 nM; in experiment [2], 19500 nM.

These data come from patent US7998965B2, “Glutamate aggrecanase inhibitors” (Wyeth LLC, priority 2005, dated 2011).
